Measurements from patent US20240059703A1 (AMGEN INC., priority 2021, published 2024).

These compounds were tested against KRAS G12C (Homo sapiens (Human), UniProt P01116, C118A/G12C) (assay: 2 h coupled exchange assay). Details: Avg 2 h Coupled exchange IC50, 2 h compound pre-incubation.
Assay type: biochemical
Method: The term “2 h coupled exchange assay” or “20 h coupled exchange assay” as used herein refers to the assay described in the Section entitled “BIOLOGICAL EVALUATION.”

IC50 [nM]	Compound
76800	C=CC(=O)N1CC2(CCN(c3nc4c(c(-c5cc(O)ccc5C)c3F)COC(C)(C)C4)C2)C1 (single isomer, unassigned) [Example 14-61, (M)-1-(6-(3-fluoro-4-(5-hydroxy-2-methylphenyl)-7,7-dimethyl-7,8-dihydro-5H-pyrano[4,3-b]pyridin-2-yl)-2,6-diazaspiro[3.4]octan-2-yl)-2-propen-1-one]
478	C=CC(=O)N1CC2(CCN(c3nc4cc(-c5scnc5C)ccc4c(-c4ccccc4Cl)c3C)C2)C1 [Example 15-2, 1-(6-(4-(2-chlorophenyl)-3-methyl-7-(4-methyl-1,3-thiazol-5-yl)-2-quinolinyl)-2,6-diazaspiro[3.4]octan-2-yl)-2-propen-1-one]
619	C=CC(=O)N1CC2(CCN(c3nc4c(c(-c5[nH]c(=O)c(Br)c6ccccc56)c3C#N)CCC(C)(C)C4)C2)C1 [Example 33-1, 4-(4-bromo-3-oxo-2,3-dihydro-1-isoquinolinyl)-7,7-dimethyl-2-(2-(2-propenoyl)-2,6-diazaspiro[3.4]octan-6-yl)-5,6,7,8-tetrahydro-3-quinolinecarbonitrile]
3350	C=CC(=O)N1CC2(CCN(c3nc4c(c(-c5cc(O)ccc5C)c3F)C[C@H]3C[C@@H]4C3(C)C)C2)C1 (single isomer, unassigned) [Example 14-60]

Same assay, conditions: Avg 2 h Coupled exchange IC50, 2 h compound pre-incubation, SOS-mediated nucleotide exchange

IC50 [nM]	Compound
657	C=CC(=O)N1CC2(CCN(c3nc4c(c(-c5c(C)ccc6[nH]ncc56)c3C#N)CC(C)(C)C4)[C@H]2C)C1 (atropisomer, axis not shown; (P)) [Example 13-53, (P)-6,6-dimethyl-4-(5-methyl-1H-indazol-4-yl)-2-((5S)-5-methyl-2-(2-propenoyl)-2,6-diazaspiro[3.4]octan-6-yl)-6,7-dihydro-5H-cyclopenta[b]pyridine-3-carbonitrile]
266	C=CC(=O)N1CC2(CCN(c3nc4c(c(-c5ccnn5C)c3C#N)CC[C@H](c3ccnn3C)C4)C2)C1 (single isomer, unassigned) [Example 13-28]
366	C=CC(=O)N1CC2(CCN(c3nc4c(c(-c5cc(O)c(F)c6ccccc56)c3C#N)COC(C)(C)C4)C2)C1 [Example 13-71, 4-(4-fluoro-3-hydroxy-1-naphthalenyl)-7,7-dimethyl-2-(2-(2-propenoyl)-2,6-diazaspiro[3.4]octan-6-yl)-7,8-dihydro-5H-pyrano[4,3-b]pyridine-3-carbonitrile]
1140	C=CC(=O)N1CC2(CCN(c3nc4c(c(-c5cc(O)ccc5C)c3C#N)[C@@H]3CC[C@H]4C3)C2)C1 (single isomer, unassigned) [Example 14-10]
334	C=CC(=O)N1CC2(CCN(c3nc4c(c(-c5c(C)ccc6cnn(C)c56)c3C#N)C[C@H]3C[C@@H]4C3(C)C)[C@H]2CO)C1 [Example 13-62, (1R,9R)-6-(1,6-dimethyl-1H-indazol-7-yl)-4-((5R)-5-(hydroxymethyl)-2-(2-propenoyl)-2,6-diazaspiro[3.4]octan-6-yl)-10,10-dimethyl-3-azatricyclo[7.1.1.0^2,7]undeca-2,4,6-triene-5-carbonitrile]
715	C=CC(=O)N1CC2(CCN(c3nc4c(c(-c5c(C)ccc6cnn(C)c56)c3C#N)C[C@H]3C[C@@H]4C3)[C@H]2C)C1 [Example 13-30, (1S,9R)-6-(1,6-dimethyl-1H-indazol-7-yl)-4-((5S)-5-methyl-2-(2-propenoyl)-2,6-diazaspiro[3.4]octan-6-yl)-3-azatricyclo[7.1.1.0^2,7]undeca-2,4,6-triene-5-carbonitrile]
702	C=CC(=O)N1CC2(CCN(c3nc4c(c(-c5c(C)ccc6[nH]ncc56)c3C#N)OC3(COC3)C4)C2)C1 [Example 13-107, 7-(5-methyl-1H-indazol-4-yl)-5-(2-(2-propenoyl)-2,6-diazaspiro[3.4]octan-6-yl)-3H-spiro[furo[3,2-b]pyridin-2,3′-oxetane]-6-carbonitrile]
564	C=CC(=O)N1CC2(CCN(c3nc4c(c(-c5cc(O)c(F)c6ccccc56)c3C#N)CCC3CC43)C2)C1 [Example 13-72, (6aR,7aR)-4-(4-fluoro-3-hydroxy-1-naphthalenyl)-2-(2-(2-propenoyl)-2,6-diazaspiro[3.4]octan-6-yl)-6,6a,7,7a-tetrahydro-5H-cyclopropa[h]quinoline-3-carbonitrile|(6aS,7aS)-4-(4-fluoro-3-hydroxy-1-naphthalenyl)-2-(2-(2-propenoyl)-2,6-diazaspiro[3.4]octan-6-yl)-6,6a,7,7a-tetrahydro-5H-cyclopropa[h]quinoline-3-carbonitrile]
19300	C=CC(=O)N1CC2(CCN(c3nc4c(c(-c5cc(O)c(F)c6ccccc56)c3C#N)CC[C@H]3C[C@@H]43)C2)C1 (single isomer, unassigned) [Example 13-73]
1800	C=CC(=O)N1CC2(CCN(c3nc4c(c(-c5ccccc5Cl)c3C#N)CC(C)(C)C4)C2)C1 (single isomer, unassigned) [Example 13-24, (M)-4-(2-chlorophenyl)-6,6-dimethyl-2-(2-(2-propenoyl)-2,6-diazaspiro[3.4]octan-6-yl)-6,7-dihydro-5H-cyclopenta[b]pyridine-3-carbonitrile]
676	C=CC(=O)N1CC2(CCN(c3nc4c(c(-c5cc(C)cc6ccccc56)c3C#N)COC(C)(C)C4)C2)C1 [Example 13-33, 7,7-dimethyl-4-(3-methyl-1-naphthalenyl)-2-(2-(2-propenoyl)-2,6-diazaspiro[3.4]octan-6-yl)-7,8-dihydro-5H-pyrano[4,3-b]pyridine-3-carbonitrile]

The next lines start with the compound.

Compound	IC50 [nM]
C=CC(=O)N1CC2(CCN(c3nc4c(c(-c5cccc(F)c5O)c3C#N)C[C@H]3C[C@@H]4C3(C)C)C2)C1 [Example 2-70, (1R,9R)-6-(3-fluoro-2-hydroxyphenyl)-10,10-dimethyl-4-(2-(2-propenoyl)-2,6-diazaspiro[3.4]octan-6-yl)-3-azatricyclo[7.1.1.0^2,7]undeca-2,4,6-triene-5-carbonitrile]	1340
C=CC(=O)N1CC2(CCN(c3nc4c(c(-c5cccc6ccc(O)cc56)c3C#N)COC(C)(C)C4)C2)C1 [Example 12-32, 4-(7-hydroxy-1-naphthalenyl)-7,7-dimethyl-2-(2-(2-propenoyl)-2,6-diazaspiro[3.4]octan-6-yl)-7,8-dihydro-5H-pyrano[4,3-b]pyridine-3-carbonitrile]	515
C=CC(=O)N1CC2(CCN(c3nc4c(c(-c5cc(Cl)cc6ccn(C)c56)c3C#N)COC(C)(C)C4)C2)C1 (single isomer, unassigned) [Example 12-10, (M)-4-(5-chloro-1-methyl-1H-indol-7-yl)-7,7-dimethyl-2-(2-(2-propenoyl)-2,6-diazaspiro[3.4]octan-6-yl)-7,8-dihydro-5H-pyrano[4,3-b]pyridine-3-carbonitrile]	7420
C=CC(=O)N1CC2(CCN(c3nc4c(c(-c5ccc(Cl)c6cc[nH]c56)c3C#N)COC(C)(C)C4)C2)C1 [Example 12-6, 4-(4-chloro-1H-indol-7-yl)-7,7-dimethyl-2-(2-(2-propenoyl)-2,6-diazaspiro[3.4]octan-6-yl)-7,8-dihydro-5H-pyrano[4,3-b]pyridine-3-carbonitrile]	213
C=CC(=O)N1CC2(CCN(c3nc4c(c(-c5c(C)c(Cl)cc6[nH]ncc56)c3Cl)COC(C)(C)C4)C2)C1 (single isomer, unassigned) [Example 2-108, (M)-1-(6-(3-chloro-4-(6-chloro-5-methyl-1H-indazol-4-yl)-7,7-dimethyl-7,8-dihydro-5H-pyrano[4,3-b]pyridin-2-yl)-2,6-diazaspiro[3.4]octan-2-yl)-2-propen-1-one]	14100
C=CC(=O)N1CC2(CCN(c3nc4c(c(-c5cc(O)cc6nccnc56)c3C#N)C[C@H]3C[C@@H]4C3(C)C)C2)C1 (single isomer, unassigned) [Example 12-39]	3900
C=CC(=O)N1CC2(CCN(c3nc4c(c(-c5c(C)ccc6cnn(C)c56)c3C)CCC(C)(C)C4)C2)C1 (single isomer, unassigned) [Example 2-20, (M)-1-(6-(4-(1,6-dimethyl-1H-indazol-7-yl)-3,7,7-trimethyl-5,6,7,8-tetrahydro-2-quinolinyl)-2,6-diazaspiro[3.4]octan-2-yl)-2-propen-1-one]	10500
C=CC(=O)N1CC2(CCN(c3nc4c(c(-c5c(C)c(Cl)cc6cnn(C)c56)c3C)CCN(C(C)C)C4)C2)C1 (single isomer, unassigned) [Example 12-24, (M)-1-(6-(4-(5-chloro-1,6-dimethyl-1H-indazol-7-yl)-3-methyl-7-(2-propanyl)-5,6,7,8-tetrahydro-1,7-naphthyridin-2-yl)-2,6-diazaspiro[3.4]octan-2-yl)-2-propen-1-one]	50
C=CC(=O)N1CC2(CCN(c3nc4c(c(-c5cccc6c(O)cccc56)c3C#N)COC(C)(C)C4)C2)C1 [Example 12-33, 4-(5-hydroxy-1-naphthalenyl)-7,7-dimethyl-2-(2-(2-propenoyl)-2,6-diazaspiro[3.4]octan-6-yl)-7,8-dihydro-5H-pyrano[4,3-b]pyridine-3-carbonitrile]	527
C=CC(=O)N1CC2(CCN(c3nc4c(c(-c5c(Cl)ccc6ccn(C)c56)c3C#N)COC(C)(C)C4)C2)C1 [Example 12-14, 4-(6-chloro-1-methyl-1H-indol-7-yl)-7,7-dimethyl-2-(2-(2-propenoyl)-2,6-diazaspiro[3.4]octan-6-yl)-7,8-dihydro-5H-pyrano[4,3-b]pyridine-3-carbonitrile]	246
C=CC(=O)N1CC2(CCN(c3nc4c(c(-c5cccc(F)c5O)c3C#N)C[C@H]3C[C@@H]4C3(C)C)C2)C1 (single isomer, unassigned) [Example 2-71]	20300

Same assay, conditions: read-out: Avg 2 h Coupled exchange IC50, 2 h compound pre-incubation, SOS-mediated nucleotide exchange

IC50 [nM]	Compound
17400	(M)-1-(6-(4-(5-chloro-1-methyl-1H-indazol-7-yl)-3,7,7-trimethyl-7,8-dihydro-5H-pyrano[4,3-b]pyridin-2-yl)-2,6-diazaspiro[3.4]octan-2-yl)-2-propen-1-one [Example 2-33]
